Laboratory results: patent publication EP1743640A1, “Use of substituted pyrazoline compounds for the preparation of paediatric medicaments” (LABORATORIOS DEL DR. ESTEVE, S.A., priority 2005, dated 2007)
pKi: −log10 of the molar value.

What was measured:
cannabinoid receptors [1] = assay: Mouse tetrad model, agonistic effect; assay type: in vivo, Male NMRI mice; design: key to Agonistic effect D: Sedation: % sedation = mean score (0-3 scale)/3 × 100; Agonistic effect A: Hot-Plate test / Agonistic effect B: Hypothermia / Agonistic effect C: Catalepsy: unit not given here; settings: 5 mg/kg i.v.
Text: (§1) Substances with affinity for cannabinoid receptors are known to produce a wide range of pharmacological effects. It is also known that intravenous administration of a substance with affinity for cannabinoid receptors in mice produces analgesia , hypothermia, sedation and catalepsy. Individually, none of these effects can be considered as proof that a tested substance has affinity for cannabinoid-receptors, since all of these effects are common for various classes of centrally active agents. However, substances, which show all of these effects, i.e. substances that are active in this so-called tetrad model are considered to have affinity for the cannabinoid receptors. It has further been shown that cannabinoid receptor antagonists are higly effective in blocking the effects of a cannabinoid agonist in the mouse tetrad model.
(§2) The tetrad model is described, for example, in the publication of A. C. Howlett et al, Intemational Union of Pharmacology XXVII. Classification of Cannabinoid Receptors, Pharmacol Rev 54, 161-202 , 2002 and David R. Compton et al., "In-vivo Characterization of a Specific Cannabinoid Receptor Antagonist (SR141716A) :Inhibition of Tetrahydrocannbinol- induced Responses and Apparent Agonist Activity", J. Pharmacol. Exp. Ther. 277 , 2, 586-594, 1996. The corresponding parts of the description are hereby incorporated by reference.
(§3) Male NMRI mice with a weight of 20-30 g (Harlan, Barcelona, Spain) are used in all of the following experiments.
(§4) Before testing in the behavioral procedures given below, mice are acclimatized to the experimental setting. Pre-Treatment control values are determined for analgesia hot plate latency (in seconds), rectal temperature, sedation and catalepsy.
(§5) In order to determine the agonistic activty of the substance to be tested, the mice are injected intravenously with the substance to be tested or the vehicle alone. 15 minutes after injection, latency in hot plate analgesia is measured. Rectal temperature, sedation and catalepsy are measured 20 minutes after injection.
(§6) The hot plate analgesia is determined according to the method described in Woolfe D. et al. "The evaluation of analgesic action of pethidine hydrochloride (Demerol)", J. Pharmacol. Exp. Ther. 80, 300-307,1944. The respective description is hereby incorporated by reference and forms part of the present disclosure.
(§7) The mice are placed on a hot plate (Harvard Analgesimeter) at 55 ± 0.5 °C until they show a painful sensation by licking their paws or jumping and the time for these sensations to occur is recorded. This reading is considered the basal value (B). The maximum time limit the mice are allowed to remain on the hot plate in absence of any painful response is 40 seconds in order to prevent skin damage. This period is called the cut-off time (PC).
(§8) Fifteen minuts after the administration of the substance to be tested, the mice are again placed on the hot plate and the afore described procedure is repeated. This period is called the post-treatment reading (PT).
(§9) The degree of analgesia is calculated from the formula : %MPE of Analgesia = (PT-B)/(PC-B) × 100 [formula]
(§10) Sedation and ataxia is determined according to the method described in Desmet L. K. C. et al. "Anticonvulsive properties of Cinarizine and Flunarizine in Rats and Mice", Arzneim. -Forsch. (Frug Res) 25, 9, 1975. The respective description is hereby incorporated by reference and forms part of the present disclosure.
The chosen scoring system is • 0: no ataxia; • 1: doubful; • 2: obvious calmness and quiet; • 3 pronounced ataxia; prior to as well as after treatment.
The percentage of sedation is determined according to the formula: %of sedation = arithmetic mean/3 × 100 [formula]
Hypothermia is determined according to the method described in David R. Compton et al. "In-vivo Characterization of a Specific Cannabinoid Receptor Antagonist (SR141716A) Inhibition of Tetrahydrocannbinol- induced Responses and Apparent Agonist Activity", J. Pharmacol Exp Ther. 277 , 2, 586-594, 1996. […]

CB2-Receptor = biological target: T1, CB2-Receptor (Homo sapiens, UniProt P34972); assay: In-vitro determination of affinity to CB2 receptor (radioligand [3H]-CP55940); assay type: binding
T1 construct: purchased Receptor Biology, Inc
Procedure: (§11) I. In-vitro determination of affinity to CB1/CB2-Receptors
(§12) The in-vitro determination of the affinity of the substituted pyrazoline compounds to CB1/CB2-Rezeptors is carried out as described in the publication of Ruth A. Ross, Heather C. Brockie et al., "Agonist-inverse agonist characterization at CB1 and CB2 cannabinoid receptors of L-759633, L759656 and AM630", British Journal of Pharmacology, 126, 665-672, (1999), whereby the transfected human CB1 and CB2 receptors of Receptor Biology, Inc. are used. The radioligand used for both receptors is [^3H]-CP55940. The respective parts of the description is hereby incorporated by reference and forms part of the present disclosure.

cannabinoid receptors [2] = assay: Mouse tetrad model, antagonistic effect against Win 55212-2; assay type: in vivo, Male NMRI mice; design: unit not given here; settings: 5 mg/kg i.v. prior to Win 55212-2 in a dose of 1,25mg/kg i.v.
Text: as §1, §2, §3, §4, §5
In order to determine the antagonistic activity the identical procedure is used as for the determination of the agonistic effects, but with the difference that the substance to be evaluated for its antagonistic activity is injectected 5 minutes before the intravenous injection of 1.25 mg/kg Win-55,212 a known cannabinoid-receptor agonist.
as §6, §7, §8, §9, §10
The chosen scoring system is • 0: no ataxia; • 1: doubful; • 2: obvious calmness and quiet; • 3 pronounced ataxia; prior to as well as after treatment. […]

CB1-Receptor = biological target: T2, CB1-Receptor (Homo sapiens, UniProt P21554); assay: In-vitro determination of affinity to CB1 receptor (radioligand [3H]-CP55940); assay type: binding
T2 construct: purchased Receptor Biology, Inc
Procedure: as §11, §12

T1 sequence (P34972 whole entry): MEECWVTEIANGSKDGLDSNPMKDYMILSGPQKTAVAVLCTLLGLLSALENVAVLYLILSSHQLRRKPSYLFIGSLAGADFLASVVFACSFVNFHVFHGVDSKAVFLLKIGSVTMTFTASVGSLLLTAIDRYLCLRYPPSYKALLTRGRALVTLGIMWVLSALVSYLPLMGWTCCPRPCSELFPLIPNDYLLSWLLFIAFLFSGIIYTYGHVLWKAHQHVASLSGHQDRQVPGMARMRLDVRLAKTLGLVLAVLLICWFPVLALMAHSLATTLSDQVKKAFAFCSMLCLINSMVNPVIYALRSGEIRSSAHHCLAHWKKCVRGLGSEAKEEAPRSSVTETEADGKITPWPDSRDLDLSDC
T2 sequence (P21554 whole entry): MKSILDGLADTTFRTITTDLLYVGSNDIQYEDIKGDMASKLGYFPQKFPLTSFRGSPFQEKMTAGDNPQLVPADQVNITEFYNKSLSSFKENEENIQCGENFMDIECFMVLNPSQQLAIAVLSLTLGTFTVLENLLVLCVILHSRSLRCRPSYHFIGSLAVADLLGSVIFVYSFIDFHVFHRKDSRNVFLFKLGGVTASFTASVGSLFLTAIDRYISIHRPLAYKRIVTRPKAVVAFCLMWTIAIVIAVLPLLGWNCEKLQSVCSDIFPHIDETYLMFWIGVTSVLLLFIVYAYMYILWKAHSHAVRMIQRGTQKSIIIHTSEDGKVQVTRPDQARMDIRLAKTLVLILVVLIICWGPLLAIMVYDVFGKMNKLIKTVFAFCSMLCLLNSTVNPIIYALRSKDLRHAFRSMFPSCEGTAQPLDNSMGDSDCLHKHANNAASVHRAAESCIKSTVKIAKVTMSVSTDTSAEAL

| Structure (SMILES) | Agonistic effect A: Hot-Plate test (cannabinoid receptors [1]) | Agonistic effect B: Hypothermia (cannabinoid receptors [1]) | Agonistic effect C: Catalepsy (cannabinoid receptors [1]) | Agonistic effect D: Sedation (cannabinoid receptors [1]) | pKi (CB2-Receptor) | Antagonistic Effect A: Hot-Plate test (cannabinoid receptors [2]) | Antagonistic Effect B: Hypothermia (cannabinoid receptors [2]) | Antagonistic Effect C: Catalepsy (cannabinoid receptors [2]) | Antagonistic Effect D: Sedation (cannabinoid receptors [2]) | pKi (CB1-Receptor) |
| --- | --- | --- | --- | --- | --- | --- | --- | --- | --- | --- |
| O=C(NN1CCCCC1)C1=NN(c2ccc(Cl)cc2Cl)C(c2ccc(Cl)cc2)C1 (stereo not shown) [Example 1, N-piperidinyl-5-(4-chlorophenyl)-1-(2,4-dichlorophenyl)-4,5-dihydro-1H-pyrazole-3-carboxamide] | 0 | 0 | 0 | 0 | < 6.00 | 74 | 100 | 100 | 100 | > 7.60 |
| O=C(C1=NN(c2ccc(Cl)cc2Cl)C(c2ccc(Cl)cc2)C1)N1CCCCC1 (stereo not shown) [Example 5, (5-(4-Chloro-phenyl)-1-(2,4-dichloro-phenyl)-4,5-dihydro-1 H-pyrazol-3-yl]-piperidin-1-yl-methanone] | 0 | 50 | 0 | 0 | ~6.00 | 50 | 40 | 20 | 20 | – |
